target: Sphingosine 1-phosphate receptor 1 (Homo sapiens, UniProt P21453); assay: potentiators of S1P1 agonist response, dose response, cell-based, potentiator mode, 60K MLSMR set (AID 466); details: not given
Sequence (P21453 whole entry): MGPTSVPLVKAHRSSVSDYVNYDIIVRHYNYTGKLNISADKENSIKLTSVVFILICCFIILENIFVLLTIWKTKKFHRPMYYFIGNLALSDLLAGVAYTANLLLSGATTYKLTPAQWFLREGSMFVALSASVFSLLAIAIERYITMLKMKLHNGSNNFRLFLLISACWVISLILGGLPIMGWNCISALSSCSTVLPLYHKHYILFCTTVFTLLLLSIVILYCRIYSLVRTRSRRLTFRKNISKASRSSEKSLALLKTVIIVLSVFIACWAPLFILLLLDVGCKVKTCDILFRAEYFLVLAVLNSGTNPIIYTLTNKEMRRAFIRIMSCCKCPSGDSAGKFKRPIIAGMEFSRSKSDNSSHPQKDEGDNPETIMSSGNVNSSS

Compound | EC50 [µM]
O=C(C1CCC1)N1CCc2cc(S(=O)(=O)Nc3ccc4c(c3)OCCO4)ccc21 [1-(cyclobutanecarbonyl)-N-(2,3-dihydro-1,4-benzodioxin-6-yl)-2,3-dihydroindole-5-sulfonamide] | > 30
CCn1nc(-c2ccccc2)nc2c(=O)n(C)c(=O)nc1-2 [1-Ethyl-6-methyl-3-phenyl-1H-pyrimido[5,4-e][1,2,4]triazine-5,7-dione] | 4.29
Cc1cc(C(=O)CSc2nnc(-c3ccco3)o2)c(C)n1-c1ccc2c(c1)OCCO2 [1-[1-(2,3-dihydro-1,4-benzodioxin-6-yl)-2,5-dimethyl-3-pyrrolyl]-2-[[5-(2-furanyl)-1,3,4-oxadiazol-2-yl]thio]ethanone] | 9.32
Cc1cc(C(=O)CSc2nnnn2C)c(C)n1-c1cccc(F)c1 [1-[1-(3-fluorophenyl)-2,5-dimethyl-3-pyrrolyl]-2-[(1-methyl-5-tetrazolyl)thio]ethanone] | 1.88
COc1ccc(-n2c(C)cc(C(=O)CSc3nnc(-c4cccs4)o3)c2C)cc1 [1-[1-(4-methoxyphenyl)-2,5-dimethyl-3-pyrrolyl]-2-[(5-thiophen-2-yl-1,3,4-oxadiazol-2-yl)thio]ethanone] | 1.96
Cc1csc(SCC(=O)c2cc(C)n(Cc3cccs3)c2C)n1 [1-[2,5-dimethyl-1-(2-thenyl)pyrrol-3-yl]-2-[(4-methylthiazol-2-yl)thio]ethanone] | 7.01
Cc1ccc(-n2c(C)cc(C(=O)CSc3nnnn3C)c2C)cc1 [1-[2,5-dimethyl-1-(4-methylphenyl)-3-pyrrolyl]-2-[(1-methyl-5-tetrazolyl)thio]ethanone] | 6.1
Cc1cc(C)n2nc(SCC(=O)c3cc(C)n(-c4cc(C)on4)c3C)nc2n1 [1-[2,5-dimethyl-1-(5-methyl-1,2-oxazol-3-yl)pyrrol-3-yl]-2-[(5,7-dimethyl-[1,2,4]triazolo[1,5-a]pyrimidin-2-yl)sulfanyl]ethanone] | 5.63
CC(Oc1ccccc1Br)C(=O)N1CCc2ccccc21 (stereo not drawn) [1-[2-(2-bromophenoxy)propanoyl]indoline] | 7.23

Continued, values first:

EC50 [µM] | Compound
7.42 | CCOc1ccc(-c2nc(CSCC(=O)N3CCN(c4cccc(OC)c4)CC3)c(C)o2)cc1 [1-[4-(3-methoxyphenyl)piperazino]-2-[(5-methyl-2-p-phenetyl-oxazol-4-yl)methylthio]ethanone]
9.88 | O=C(NCc1ccco1)C1CCN(C(=O)c2cc3sccc3n2Cc2ccc(Cl)cc2)CC1 [1-[4-(4-chlorobenzyl)thieno[3,2-b]pyrrole-5-carbonyl]-N-(2-furfuryl)isonipecotamide]
9.93 | CC(C)(CC(=O)N1CCN(c2ccc(Cl)cc2)CC1)CC1=NS(=O)(=O)c2ccccc2N1 [1-[4-(4-chlorophenyl)-1-piperazinyl]-4-(1,1-dioxo-4H-1,2,4-benzothiadiazin-3-yl)-3,3-dimethyl-1-butanone]
8.2 | Cc1nnc(SCC(=O)N2CCC(c3noc4ccc(F)cc34)CC2)s1 [1-[4-(5-fluoranyl-1,2-benzoxazol-3-yl)piperidin-1-yl]-2-[(5-methyl-1,3,4-thiadiazol-2-yl)sulfanyl]ethanone]
4.74 | Fc1ccccc1COc1ccc(C=Nn2cnnc2)cc1 [1-[4-[(2-fluorophenyl)methoxy]phenyl]-N-(1,2,4-triazol-4-yl)methanimine]
6.53 | Fc1ccc(COc2ccc(C=Nn3cnnc3)cc2)cc1 [1-[4-[(4-fluorophenyl)methoxy]phenyl]-N-(1,2,4-triazol-4-yl)methanimine]
3.83 | COc1ccc(C(c2c(O)ccc3ccccc23)N2CCOCC2)c(OC)c1 (stereo not drawn) [1-[(2,4-dimethoxyphenyl)-(4-morpholinyl)methyl]-2-naphthalenol]
2.6 | Cc1ccc(-c2csc3ncnc(Sc4nnc(CN5CCCCCC5=O)o4)c23)cc1 [1-[[5-[5-(4-methylphenyl)thieno[2,3-d]pyrimidin-4-yl]sulfanyl-1,3,4-oxadiazol-2-yl]methyl]azepan-2-one]
> 10 | Nc1nnnn1N=C/C(Br)=C/c1ccccc1 [1-[[(Z)-2-bromanyl-3-phenyl-prop-2-enylidene]amino]-1,2,3,4-tetrazol-5-amine]
> 30 | COc1cc2c(cc1OC)C(C)N(C(=O)c1cc3ccccc3o1)CC2 (stereo not drawn) [1-benzofuran-2-yl-(6,7-dimethoxy-1-methyl-3,4-dihydro-1H-isoquinolin-2-yl)methanone]
> 95 | O=C(NCc1ccc2c(c1)OCO2)C1CC(=O)N(C2CCCCCCC2)C1 (stereo not drawn) [1-cyclooctyl-5-keto-N-piperonyl-pyrrolidine-3-carboxamide]

same assay, conditions: inactive by the depositor's call

Compound | EC50 [µM]
O=C(Nc1ccc(C(F)(F)F)cc1)C1CCCN1S(=O)(=O)c1cccc2cccnc12 (stereo not drawn) [1-(8-quinolinylsulfonyl)-N-[4-(trifluoromethyl)phenyl]-2-pyrrolidinecarboxamide] | 10.2
O=C(C1CC1)N1CCc2cc(S(=O)(=O)NCC3COc4ccccc4O3)ccc21 (stereo not drawn) [1-(cyclopropanecarbonyl)-N-(2,3-dihydro-1,4-benzodioxin-3-ylmethyl)-2,3-dihydroindole-5-sulfonamide] | 13.8
COc1ccc(-n2c(C)c(C(C)=O)c3cc(O)ccc32)cc1 [1-[1-(4-methoxyphenyl)-2-methyl-5-oxidanyl-indol-3-yl]ethanone] | 24.2
CCN(CC)c1ccc(-n2c(C)c(C(C)=O)c(C(C)=O)c2C)cc1 [1-[1-[4-(diethylamino)phenyl]-4-ethanoyl-2,5-dimethyl-pyrrol-3-yl]ethanone] | 10.4
Cc1ccc(OCCn2cc(C(=N)NO)c3ccccc32)cc1C [1-[2-(3,4-dimethylphenoxy)ethyl]-N'-hydroxy-1H-indole-3-carboximidamide] | 11.2
CCCCCn1c(=O)c(C(=O)NCc2ccncc2)c(O)c2ccccc21 [1-amyl-2-hydroxy-4-keto-N-(4-pyridylmethyl)quinoline-3-carboxamide] | 24.4

The next lines start with the values.

EC50 [µM] | Compound
12.1 | CCCC(=O)c1ccc(N2CCN(C(=O)c3ccccc3Br)CC2)c(F)c1 [1-[4-[4-(2-bromobenzoyl)piperazin-1-yl]-3-fluorophenyl]butan-1-one]
37 | CC(=O)c1ccc(N2CCN(c3ccc(C(F)(F)F)cn3)CC2)cc1 [1-[4-[4-[5-(trifluoromethyl)-2-pyridinyl]-1-piperazinyl]phenyl]ethanone]
20.9 | CC(=O)N1C=CN(C(C)=O)C(c2cn(C)c3ccccc23)C1c1cn(C)c2ccccc12 (stereo not drawn) [1-[4-acetyl-2,3-bis(1-methyl-3-indolyl)-2,3-dihydropyrazin-1-yl]ethanone]
11.5 | CCc1ccc(-c2nc(CSCC(=O)N3CCN(c4ccccn4)CC3)c(C)o2)cc1 [1-[({[2-(4-ethylphenyl)-5-methyl-1,3-oxazol-4-yl]methyl}thio)acetyl]-4-pyridin-2-ylpiperazine]
12.2 | Cc1cccc(-c2nc(CSCC(=O)N3CCN(c4ccccn4)CC3)c(C)o2)c1 [1-[({[5-methyl-2-(3-methylphenyl)-1,3-oxazol-4-yl]methyl}thio)acetyl]-4-pyridin-2-ylpiperazine]
13.4 | CC(=O)N1CCCc2cc(S(=O)(=O)NCCC3=CCCCC3)ccc21 [1-acetyl-N-(2-cyclohex-1-en-1-ylethyl)-1,2,3,4-tetrahydroquinoline-6-sulfonamide]
15.6 | Cc1nn(Cc2ccccc2)c(C)c1C(=O)OCC(=O)c1cc(C)n(C2CC2)c1C [1-benzyl-3,5-dimethyl-pyrazole-4-carboxylic acid [2-(1-cyclopropyl-2,5-dimethyl-pyrrol-3-yl)-2-keto-ethyl] ester]

From BindingDB's records for doi:10.7270/Q2ZC817P (The Scripps Research Institute Molecular Screening Center, 2007)
